According to PubChem BioAssay (NCI):
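Compound exposure: 48 hours, 5 concentrations, 96-well plates. TGI: total growth inhibition.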

Key:
Experiment in all cases: growth of human tumour cells (NCI), 48 h
MALME-3M melanoma = tested on: MALME-3M melanoma
CCRF-CEM leukemia = tested on: CCRF-CEM leukemia
DU-145 prostate = tested on: DU-145 prostate
UACC-62 melanoma = tested on: UACC-62 melanoma
SK-MEL-28 melanoma = tested on: SK-MEL-28 melanoma
K-562 leukemia = tested on: K-562 leukemia
SNB-19 CNS = tested on: SNB-19 CNS
A549 NSCLC = tested on: A549 NSCLC
KM12 colon = tested on: KM12 colon
786-0 renal = tested on: 786-0 renal
TK-10 renal = tested on: TK-10 renal
SNB-75 CNS = tested on: SNB-75 CNS
COLO 205 colon = tested on: COLO 205 colon
NCI-H522 lung = tested on: NCI-H522 lung
SK-MEL-5 melanoma = tested on: SK-MEL-5 melanoma
HOP-62 NSCLC = tested on: HOP-62 NSCLC
MOLT-4 leukemia = tested on: MOLT-4 leukemia
SF-268 CNS = tested on: SF-268 CNS
PC-3 prostate = tested on: PC-3 prostate
HCC-2998 colon = tested on: HCC-2998 colon
NCI-H226 lung = tested on: NCI-H226 lung
OVCAR-3 ovarian = tested on: OVCAR-3 ovarian
HCT-116 colon = tested on: HCT-116 colon
SF-539 CNS = tested on: SF-539 CNS
MDA-MB-435 = tested on: MDA-MB-435
MDA-MB-231 breast = tested on: MDA-MB-231 breast
IGROV1 ovarian = tested on: IGROV1 ovarian
EKVX NSCLC = tested on: EKVX NSCLC
NCI-H460 lung = tested on: NCI-H460 lung
OVCAR-8 ovarian = tested on: OVCAR-8 ovarian
U251 CNS = tested on: U251 CNS
MCF7 breast = tested on: MCF7 breast
HCT-15 colon = tested on: HCT-15 colon
BT-549 breast = tested on: BT-549 breast
ACHN renal = tested on: ACHN renal
HT29 colon = tested on: HT29 colon
MDA-N = tested on: MDA-N
HL-60(TB) leukemia = tested on: HL-60(TB) leukemia
SK-MEL-2 melanoma = tested on: SK-MEL-2 melanoma
CAKI-1 renal = tested on: CAKI-1 renal
M14 melanoma = tested on: M14 melanoma
SK-OV-3 ovarian = tested on: SK-OV-3 ovarian
SW-620 colon = tested on: SW-620 colon
HS 578T breast = tested on: HS 578T breast
RXF 393 renal = tested on: RXF 393 renal
NCI/ADR-RES ovarian = tested on: NCI/ADR-RES ovarian
OVCAR-5 ovarian = tested on: OVCAR-5 ovarian
T-47D breast = tested on: T-47D breast
UACC-257 melanoma = tested on: UACC-257 melanoma
SR leukemia = tested on: SR leukemia
HOP-92 NSCLC = tested on: HOP-92 NSCLC
NCI-H23 lung = tested on: NCI-H23 lung
SN12C renal = tested on: SN12C renal
SF-295 CNS = tested on: SF-295 CNS
RPMI-8226 leukemia = tested on: RPMI-8226 leukemia
OVCAR-4 ovarian = tested on: OVCAR-4 ovarian

Measured: TGI

Cc1c2ccccc2cc2nc3ccccc3n12
> 10 µM: all assays above
